Test results from patent US20130210907A1, “METHOD FOR PREVENTING OR TREATING ENTEROCHROMAFFIN CELL HYPERPLASIA-RELATED DISEASES BY QUERCETIN ADMINISTRATION” (HONG KONG BAPTIST UNIVERSITY, priority 2012, published 2013).

Experiments:
[1] = tested on: QGP-1 cells; assay: Cell viability (MTT assay); assay type: cell-based; conditions: Homo sapiens
Procedure: To investigate the underlying mechanisms of Quercein on EC cell hyperplasia, a EC cell model, QGP-1 cell line is used as EC cell model. Human pancreatic carcinoma QGP-1 cells (JCRB0183, HSRRB, Japan) are cultured in RPMI 1640 supplemented with 10% fetal bovine serum, 100 IU/ml penicillin, and 100 μg/ml streptomycin in a humidified atmosphere of 95% air and 5% CO2 at 37° C. Cells are passaged using 0.025% trypsin and 0.01% EDTA. Cells are trypsinized and seeded in 96-well culture dishes at a density of 5,000-8,000 cells/well and cultured for 24 h or 48 h in the presence of Quercetin (0-100 μM, 0.01% DMSO).
3-(4,5-dimethylthiazol-2yl-)-2,5-diphenyl tetrazolium bromide (MTT) is used to evaluate cell viability. In this assay, cells are seeded in 96-well dishes and cultured for […] in the presence of Quercetin. Subsequently, the culture medium is replaced with 100 μl/well fresh medium containing 0.5 mg/ml MTT, and the cells are further incubated for 4 h at 37° C. The reaction is stopped by adding 100 μl/well 10% SDS in 0.1 M HCl, the absorbance of the plates is read at 570 nm The percent of cell survival is calculated by comparing the average absorbance of the Quercetin treated cells with the corresponding absorbance of the DMSO treated cells. All doses are tested in triplicates and repeated for at least three times.

[2] = tested on: PI-IBS rats; assay: Abdominal withdrawal reflex (AWR) test: pain threshold pressure to colorectal distension; assay type: in vivo, rat; conditions: for Pain threshold pressure, after treatment: 2 weeks
Procedure: Sprague-Dawley male rats (Laboratory Animal Services Centre, The Chinese University of Hong Kong) aged 6 weeks with body weight around 220 g are used to develop PI-IBS model. Briefly, rats are fasted for 24 h, and deeply anesthetized with chloral hydrate (350 mg.kg^−1, i.p.). After induction of colitis by 2,4,6-trinitrobenzenesulfonic acid solution (TNBS, 5 mg/0.8 ml/rat, in 50% ethanol, 8 cm from anus) administration, the rats are allowed to recover for at least 4 weeks before use. The control rats are similarly administered with 0.8 ml saline instead of TNBS. Only the rats that have completely recovered from the initial inflammation and acquired visceral hypersensitivity are used as the PI-IBS rats.
6 groups of 12 rats are tested. Normal rats (Group 1) are treated with water. PI-IBS rats are randomly divided into 5 groups and orally treated with water (Group 2), Doxantrazole (mast cell stabilizer, 30 mg/kg/d, Group 3), and Quercetin (Group 4-6) at the dose of 5, 10, and 20 mg/kg/d, respectively. After 2 weeks daily drug administration, 5 rats in each group are used to measure pain threshold pressure by abdominal withdrawal reflex (AWR) test, and the remaining […] is used for electromyography (EMG) recording.
AWR test is performed as previously described in Al-Chaer E D, Kawasaki M, Pasricha P J. A new model of chronic visceral hypersensitivity in adult rats induced by colon irritation during postnatal development. Gastroenterology. 2000 November; 119(5):1276-85. Briefly, rats are lightly anesthetized with ether; a latex balloon is inserted into the descending colon. Rats are then allowed to recover for about 1 h. The tube of the balloon is connected via a Y-connector to a sphygmomanometer and colorectal distension is applied in increments of 5 mmHg until a visible contraction of the abdominal wall is observed by an investigator blinded to the treatment. The pain threshold pressure is defined as the intensity of colorectal distension (CRD) that elicited an observable AWR, i.e. a sudden and persistent abdominal muscle contraction with abdomen lift off the platform. The pain threshold pressure of all groups is recorded and repeated five times with intervals of at least 5 minutes for recovery. EMG recording are conducted as previously described in Tammpere A, Brusberg M, Axenborg J, Hirsch I, Larsson H, Lindstrom E. Evaluation of pseudo-affective responses to noxious colorectal distension in rats by manometric recordings. Pain. 2005 August; 116(3):220-6 and Li Z, Zhang X J, Xu H X, Sung J J, Bian Z X. Intracolonical administration of protease-activated receptor-2 agonists produced visceral hyperalgesia by up-regulating serotonin in the colon of rats. Eur J. Pharmacol. 2009 Mar. 15; 606(1-3):199-204. Firstly, a surgical operation is made to implant the electrodes into the left external abdominal oblique muscles 7 days before EMG recording. After the last drug administration, a flexible latex balloon is inserted into the rat descending colon, and the rats are allowed to accommodate for 1 h. CRD is initiated, and the EMG signal is amplified and filtered by Power Lab System. Graded colorectal distension (20, 40, 60, and 80 mmHg; 20 s duration; 2 min inter-stimulus interval) is carried out for total three cycles to each rat. The changes of area under the curve (AUC) are calculated using that during 20 s distension period over the 20 s baseline.

[3] = tested on: PI-IBS rats; assay: Mechanical stimuli (CRD)-induced 5-HT release: colonic 5-HT content with or without CRD; assay type: in vivo, rat; conditions: for 5-HT content of tissue, +CRD: after CRD; for 5-HT content of tissue, -CRD: without CRD; for Decrease of colon tissue 5-HT content after CRD application: not significant
Procedure: 5-HT content in the colon tissue is assayed based on our previously reported procedure in Qi S D, Tian S L, Xu H X, Sung J J, Bian Z X. Quantification of luminally released serotonin in rat proximal colon by capillary electrophoresis with laser-induced fluorescence detection. Anal Bioanal Chem. 2009 April; 393(8):2059-66. Briefly, the colon segment is homogenized in 15% iced trichloroacetic acid; for 2 min and stored at 4° C. for 2 h. After centrifuge at 10,000 G for 15 min, the supernatant of each sample is filtered using 0.22 μm filters and extracted with diethyl ether for five times to remove the trichloroacetic acid. The prepared samples are added to derivatization solution (150 mM sodium tetraborate, 25% acetonitrile, 2 mM CFSE) and incubated for […] in dark at room temperature. The 5-HT content is analyzed by capillary electrophoresis with laser-induced fluorescence detection and expressed as nanogram per milligram (wet weight of tissue).
To determine whether mechanical stimuli (CRD) can induce colonic 5-HT release in PI-IBS rats, and whether Quercetin has effect on it, 5-HT content in colonic tissue is evaluated in rats with or without AWR test. The colon tissues for 5-HT content determination are collected from the rats from Example 1 and Example 2, and the methods for 5-HT content determination are followed as described in Example 2.

O=c1c(O)c(-c2ccc(O)c(O)c2)oc2cc(O)cc(O)c12 [Quercetin, 2-(3,4-dihydroxyphenyl)-3,5,7-trihydroxy-4H-chromen-4-one]
cytotoxicity at 100 µM ([1]; QGP-1, 24 h, at about 100 μM, read-out: Reduction of cell viability in comparison with the control): ~50%
IC50 ([1]; QGP-1, 48 h incubation): ~50 µM
Pain threshold pressure, after treatment ([2]; 5 mg/kg i.g. daily): 32 ± 1.9 mmHg
Pain threshold pressure, before treatment ([2]; 5 mg/kg i.g. group): 25 ± 1.9 mmHg
Pain threshold pressure, after treatment ([2]; 10 mg/kg i.g. daily): 33 ± 1.8 mmHg
Pain threshold pressure, before treatment ([2]; 10 mg/kg i.g. group): 25 ± 1.1 mmHg
Pain threshold pressure, after treatment ([2]; 20 mg/kg i.g. daily): 35 ± 1.3 mmHg
Pain threshold pressure, before treatment ([2]; 20 mg/kg i.g. group): 24 ± 1.1 mmHg
5-HT content of tissue, +CRD ([3]; 5 mg/kg i.g.): 4.96 ± 0.91^ ng/mg
5-HT content of tissue, -CRD ([3]; 5 mg/kg i.g.): 5.15 ± 0.58 ng/mg
5-HT content of tissue, +CRD ([3]; 10 mg/kg i.g.): 4.29 ± 0.58^ ng/mg
5-HT content of tissue, -CRD ([3]; 10 mg/kg i.g.): 4.63 ± 0.92 ng/mg
5-HT content of tissue, +CRD ([3]; 20 mg/kg i.g.): 4.01 ± 1.14 ng/mg
5-HT content of tissue, -CRD ([3]; 20 mg/kg i.g.): 5.50 ± 0.65^ ng/mg
Decrease of colon tissue 5-HT content after CRD application ([3]; low dose): ~3.67%
Decrease of colon tissue 5-HT content after CRD application ([3]; median dose): ~7.34%
